Columns and labels:
[1] = AUC (0 to last) in Beagle dog at 1 mg/kg, iv measured up to 8 hrs by LC-MS/MS analysis; format: ADME, organism-based, Canis lupus familiaris; details: in vivo
[2] = AUC (0 to last) in Sprague-Dawley rat at 1 mg/kg, iv measured up to 8 hrs by LC-MS/MS analysis; format: ADME, organism-based; details: in vivo
[3] = Clearance in Beagle dog at 1 mg/kg, iv measured up to 8 hrs by LC-MS/MS analysis; format: ADME, organism-based, Canis lupus familiaris; details: in vivo
[4] = target: T1, Tyrosine-protein kinase receptor UFO (Homo sapiens, UniProt P30530); experiment: Binding affinity to AXL (unknown origin) expressed in HEK293 cells transfected with Nano-Luc fusion vector assessed as dissociation constant by measuring decrease in BRET signal preincubated for 1 hr followed by K-5 NanoBRET tracer addition incubated for 2 hrs; format: cell-based
T1 sequence (P30530 whole entry): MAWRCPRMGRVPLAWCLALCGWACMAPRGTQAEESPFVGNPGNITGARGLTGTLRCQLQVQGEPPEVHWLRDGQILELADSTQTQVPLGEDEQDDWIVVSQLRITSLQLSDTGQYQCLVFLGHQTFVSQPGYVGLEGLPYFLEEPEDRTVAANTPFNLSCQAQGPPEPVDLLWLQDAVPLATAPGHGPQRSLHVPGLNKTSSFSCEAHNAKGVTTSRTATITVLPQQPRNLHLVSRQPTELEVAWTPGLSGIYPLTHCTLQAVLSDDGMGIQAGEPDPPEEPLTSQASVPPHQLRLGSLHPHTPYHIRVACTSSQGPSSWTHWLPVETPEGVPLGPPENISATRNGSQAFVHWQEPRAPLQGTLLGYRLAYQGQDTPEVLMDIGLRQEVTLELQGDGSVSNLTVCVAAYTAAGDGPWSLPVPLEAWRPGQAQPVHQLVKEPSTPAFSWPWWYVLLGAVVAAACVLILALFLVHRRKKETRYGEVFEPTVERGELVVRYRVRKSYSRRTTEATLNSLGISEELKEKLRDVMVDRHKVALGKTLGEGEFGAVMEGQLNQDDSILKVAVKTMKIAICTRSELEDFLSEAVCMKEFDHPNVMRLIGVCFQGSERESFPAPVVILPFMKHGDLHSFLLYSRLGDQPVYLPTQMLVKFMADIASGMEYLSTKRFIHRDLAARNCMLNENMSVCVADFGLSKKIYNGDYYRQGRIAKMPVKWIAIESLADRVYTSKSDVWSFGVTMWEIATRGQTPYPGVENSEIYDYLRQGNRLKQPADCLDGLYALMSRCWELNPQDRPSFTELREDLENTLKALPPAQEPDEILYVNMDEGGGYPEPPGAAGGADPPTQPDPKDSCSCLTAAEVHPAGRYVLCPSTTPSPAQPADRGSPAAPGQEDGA

[5] = Clearance in CD-1 mouse at 1 mg/kg, iv measured up to 24 hrs by LC-MS/MS analysis; format: ADME, organism-based; details: in vivo
[6] = Volume of distribution at steady state in Beagle dog at 1 mg/kg, iv measured up to 8 hrs by LC-MS/MS analysis; format: ADME, organism-based, Canis lupus familiaris; details: in vivo, read-out: Vdss
[7] = Volume of distribution at steady state in Sprague-Dawley rat at 1 mg/kg, iv measured up to 8 hrs by LC-MS/MS analysis; format: ADME, organism-based; details: in vivo, read-out: Vdss
[8] = Clearance in Sprague-Dawley rat at 1 mg/kg, iv measured up to 8 hrs by LC-MS/MS analysis; format: ADME, organism-based; details: in vivo
[9] = AUCinfinity in cynomolgus monkey at 1 mg/kg, iv measured up to 8 hrs by LC-MS/MS analysis; format: ADME, organism-based, Macaca fascicularis; details: in vivo
[10] = Metabolic stability in rat hepatocytes assessed as intrinsic clearance measured per 10^6 cells; format: ADME, cell-based, Hepatocyte; details: read-out: CLH
[11] = Terminal half life in cynomolgus monkey at 1 mg/kg, iv measured up to 8 hrs by LC-MS/MS analysis; format: ADME, organism-based, Macaca fascicularis; details: in vivo, read-out: beta t1/2 (converted)
[12] = Volume of distribution at steady state in CD-1 mouse at 1 mg/kg, iv measured up to 24 hrs by LC-MS/MS analysis; format: ADME, organism-based; details: in vivo, read-out: Vdss
[13] = Terminal half life in Sprague-Dawley rat at 1 mg/kg, iv measured up to 8 hrs by LC-MS/MS analysis; format: ADME, organism-based; details: in vivo, read-out: beta t1/2 (converted)
[14] = AUCinfinity in Beagle dog at 1 mg/kg, iv measured up to 8 hrs by LC-MS/MS analysis; format: ADME, organism-based, Canis lupus familiaris; details: in vivo
[15] = AUC (0 to last) in cynomolgus monkey at 1 mg/kg, iv measured up to 8 hrs by LC-MS/MS analysis; format: ADME, organism-based, Macaca fascicularis; details: in vivo
[16] = AUCinf in Sprague-Dawley rat at 2 mg/kg, po measured up to 8 hrs by LC-MS/MS analysis; format: ADME, organism-based; details: in vivo
[17] = Terminal half life in Beagle dog at 1 mg/kg, iv measured up to 8 hrs by LC-MS/MS analysis; format: ADME, organism-based, Canis lupus familiaris; details: in vivo, read-out: beta t1/2 (converted)
[18] = Terminal half life in CD-1 mouse at 1 mg/kg, iv measured up to 24 hrs by LC-MS/MS analysis; format: ADME, organism-based; details: in vivo, read-out: beta t1/2 (converted)
[19] = Volume of distribution at steady state in cynomolgus monkey at 1 mg/kg, iv measured up to 8 hrs by LC-MS/MS analysis; format: ADME, organism-based, Macaca fascicularis; details: in vivo, read-out: Vdss
[20] = AUCinfinity in CD-1 mouse at 1 mg/kg, iv measured up to 24 hrs by LC-MS/MS analysis; format: ADME, organism-based; details: in vivo
[21] = AUC (0 to last) in CD-1 mouse at 1 mg/kg, iv measured up to 24 hrs by LC-MS/MS analysis; format: ADME, organism-based; details: in vivo
[22] = AUCinfinity in Sprague-Dawley rat at 1 mg/kg, iv measured up to 8 hrs by LC-MS/MS analysis; format: ADME, organism-based; details: in vivo
[23] = target: T1, Tyrosine-protein kinase receptor UFO; experiment: Inhibition of human AXL measured after 150 mins by ATP-competitive HTRF based biochemical assay
[24] = Efflux ratio in human Caco-2 cells; format: ADME, cell-based
[25] = Clearance in cynomolgus monkey at 1 mg/kg, iv measured up to 8 hrs by LC-MS/MS analysis; format: ADME, organism-based, Macaca fascicularis; details: in vivo
[26] = Metabolic stability in human hepatocytes assessed as intrinsic clearance measured per 10^6 cells; format: ADME, cell-based, Hepatocyte; details: read-out: CLH

For CN(C)C(=O)c1ccc(-c2n[nH]c3ncc(-c4ccc5c(c4)CC[C@@H](N4C6COCC4C6)CC5)cc23)cc1, the AUC(0-t) at 8 h [1] was 540 ng·h/mL, the AUC(0-t) at 8 h [2] was 6100 ng·h/mL and the clearance [3] was 33.3 mL/min/kg. It also gave a Kd [4] of 6.8 nM, a clearance [5] of 38.3 mL/min/kg and a Vd [6] of 8.1 L/kg. The Vd [7] was 0.34 L/kg, the clearance [8] was 2.67 mL/min/kg and the AUC(0-inf) [9] was 230 ng·h/mL. The hepatocyte CLint [10] was 20 µL/min/1e6 cells, the half-life [11] was 2.3 h and the Vd [12] was 3.2 L/kg. It also gave a half-life [13] of 2.2 h, an AUC(0-inf) [14] of 560 ng·h/mL and an AUC(0-t) at 8 h [15] of 210 ng·h/mL. It also gave an AUC(0-inf) [16] of 4300 ng·h/mL, a half-life [17] of 3.8 h and a half-life [18] of 8.1 h. The Vd [19] was 13 L/kg, the AUC(0-inf) [20] was 430 ng·h/mL and the AUC(0-t) at 24 h [21] was 13 ng·h/mL. It also gave an AUC(0-inf) [22] of 6400 ng·h/mL, an IC50 [23] of 5.3 nM and an efflux ratio [24] of 11. For the same molecule, the clearance [25] was 76.7 mL/min/kg and the hepatocyte CLint [26] was 4.6 µL/min/1e6 cells.
